Assay results reported in US8785429B2, “Dihydropyrrolonaphthyridinone compounds as inhibitors of JAK” (Takeda Pharmaceutical Company Limited, priority 2009, dated 2014).

Tests used:
JAK3 = target: T1, JAK3 (Homo sapiens, UniProt P52333); assay: Assay for JAK3 Inhibition (phosphorylation of FAM-labeled substrate, Caliper LC-3000); format: biochemical; settings: −log10(IC50), IC50 is the molar concentration at 50% inhibition; read-out: JAK3 pIC50 (converted)
T1 construct: purchased Invitrogen
T1 sequence (P52333 1-1124): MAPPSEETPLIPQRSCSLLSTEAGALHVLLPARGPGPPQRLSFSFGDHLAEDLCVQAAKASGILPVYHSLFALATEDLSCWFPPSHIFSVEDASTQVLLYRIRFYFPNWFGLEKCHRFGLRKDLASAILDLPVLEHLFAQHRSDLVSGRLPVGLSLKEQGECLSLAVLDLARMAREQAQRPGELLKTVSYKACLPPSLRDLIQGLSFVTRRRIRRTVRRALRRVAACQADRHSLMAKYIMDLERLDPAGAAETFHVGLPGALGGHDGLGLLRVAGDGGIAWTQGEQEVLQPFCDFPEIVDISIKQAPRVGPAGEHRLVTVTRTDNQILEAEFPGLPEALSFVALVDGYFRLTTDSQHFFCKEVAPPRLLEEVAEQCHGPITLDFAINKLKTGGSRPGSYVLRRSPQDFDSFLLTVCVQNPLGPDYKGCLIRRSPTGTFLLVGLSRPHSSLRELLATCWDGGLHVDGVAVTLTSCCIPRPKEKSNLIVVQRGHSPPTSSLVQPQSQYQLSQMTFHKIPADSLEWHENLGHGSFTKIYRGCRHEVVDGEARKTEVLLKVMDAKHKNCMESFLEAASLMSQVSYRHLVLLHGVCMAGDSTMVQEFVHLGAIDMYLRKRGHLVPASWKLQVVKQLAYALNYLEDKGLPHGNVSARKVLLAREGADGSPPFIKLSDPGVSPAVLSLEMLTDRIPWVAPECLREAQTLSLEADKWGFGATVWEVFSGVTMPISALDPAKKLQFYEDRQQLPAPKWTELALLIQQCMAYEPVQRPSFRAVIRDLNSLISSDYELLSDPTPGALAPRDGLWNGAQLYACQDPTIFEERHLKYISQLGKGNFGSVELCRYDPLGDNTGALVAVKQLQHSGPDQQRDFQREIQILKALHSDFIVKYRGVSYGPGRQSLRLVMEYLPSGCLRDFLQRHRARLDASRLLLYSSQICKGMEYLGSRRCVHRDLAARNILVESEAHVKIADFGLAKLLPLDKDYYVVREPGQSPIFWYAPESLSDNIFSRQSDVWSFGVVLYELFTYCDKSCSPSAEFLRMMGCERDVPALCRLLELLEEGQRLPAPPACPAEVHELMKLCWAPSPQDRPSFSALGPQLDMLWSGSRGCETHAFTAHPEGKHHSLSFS
Description: (§1) A compound's ability to inhibit JAK activity may be assessed using a variety of methods, including in vitro and in vivo assays. The following in vitro assays measure a test compound's ability to inhibit JAK2- and JAK3-mediated phosphorylation of FAM-labeled JAK-specific substrates.
(§2) Purified JAK2 and JAK3 proteins were purchased from Invitrogen. JAK2 and JAK3 inhibition is determined using a black 384-well-plate format in buffer containing 50 mM HEPES, 10 mM NaCl, 10 mM MgCl2, 0.2 mM EDTA, 0.01% EDA (Brij® 35), 1 mM DTT, 0.1 mg/mL BSA at pH 7.3. Each test compound is prepared in DMSO using 2-fold serial dilutions for 11 data points and is added to the buffer so that each dilution contains 3% DMSO.
(§3) To each well is added 2 μL of 3 μM 5FAM-KKKKEEIYFFFG-NH2 and 15 μM ATP (in buffer), 2 μL of diluted test compound (3% DMSO in medium), and 2 μL of 1.2 nM JAK3 in buffer. The reaction mixture is incubated at room temperature for 60 min and is quenched by adding 50 mM HEPES, 30 mM EDTA, and 0.1% Tx-100 (pH 7.3). To quantify the fluorescent-labeled substrate and product following reaction, the test plate is loaded on a Caliper LC-3000, which measures percent of conversion by microfluidic-based separation.
(§4) Corresponding IC50 values are calculated by non-linear curve fitting of the compound concentrations and percent of inhibition to the standard IC50 equation.

JAK2 = target: T2, JAK2 (Homo sapiens, UniProt O60674); assay: Assay for JAK2 Inhibition (phosphorylation of FAM-labeled substrate, Caliper LC-3000); format: biochemical; settings: −log10(IC50), IC50 is the molar concentration at 50% inhibition; read-out: JAK2 pIC50 (converted)
T2 construct: purchased Invitrogen
T2 sequence (O60674 whole entry): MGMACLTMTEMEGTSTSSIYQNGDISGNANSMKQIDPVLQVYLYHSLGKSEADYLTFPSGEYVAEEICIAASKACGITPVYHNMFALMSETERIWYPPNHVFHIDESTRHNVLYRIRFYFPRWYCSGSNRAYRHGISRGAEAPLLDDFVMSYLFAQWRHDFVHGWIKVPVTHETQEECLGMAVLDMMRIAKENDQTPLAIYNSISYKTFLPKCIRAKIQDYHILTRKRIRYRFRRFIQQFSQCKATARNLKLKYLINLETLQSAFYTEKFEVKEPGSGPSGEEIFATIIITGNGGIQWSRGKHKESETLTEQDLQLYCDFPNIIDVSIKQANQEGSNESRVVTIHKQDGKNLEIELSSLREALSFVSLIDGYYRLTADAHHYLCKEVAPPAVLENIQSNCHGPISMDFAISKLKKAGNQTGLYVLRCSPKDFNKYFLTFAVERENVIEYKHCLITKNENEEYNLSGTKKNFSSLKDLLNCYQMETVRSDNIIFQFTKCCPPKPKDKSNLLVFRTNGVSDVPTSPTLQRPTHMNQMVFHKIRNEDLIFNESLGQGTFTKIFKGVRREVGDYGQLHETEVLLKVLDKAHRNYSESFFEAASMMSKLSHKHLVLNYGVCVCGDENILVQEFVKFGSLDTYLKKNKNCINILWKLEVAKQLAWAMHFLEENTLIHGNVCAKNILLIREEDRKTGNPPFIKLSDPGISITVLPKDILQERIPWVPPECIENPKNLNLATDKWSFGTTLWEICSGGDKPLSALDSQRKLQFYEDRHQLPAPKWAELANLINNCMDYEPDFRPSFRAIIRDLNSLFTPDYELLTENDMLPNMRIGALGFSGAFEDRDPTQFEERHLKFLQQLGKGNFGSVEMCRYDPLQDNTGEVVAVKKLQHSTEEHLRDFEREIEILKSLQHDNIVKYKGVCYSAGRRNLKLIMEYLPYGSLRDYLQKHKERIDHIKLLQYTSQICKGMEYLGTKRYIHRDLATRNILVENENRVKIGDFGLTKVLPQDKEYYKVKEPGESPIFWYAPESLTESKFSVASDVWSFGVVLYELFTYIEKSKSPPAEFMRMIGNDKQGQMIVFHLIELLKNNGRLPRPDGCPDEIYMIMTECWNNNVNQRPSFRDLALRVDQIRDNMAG
Description: as §1, §2
as §3, with “45” for “15”, “0.6” for “1.2”, “JAK2” for “JAK3”, “HEPeX,” for “HEPES,”
as §4

Row | IC50 (JAK3) [nM] | IC50 (JAK2) [nM] | SMILES
1 | 3980 | 6310 | O=C1c2ccnc3[nH]cc(c23)CN1C1CCNCC1 [Example 2, 4-(piperidin-4-yl)-3,4-dihydropyrrolo[4,3,2-de][2,6]naphthyridin-5(1H)-one]
2 | 1580 | 794 | N#CCC(=O)N1CCC(N2Cc3c[nH]c4nccc(c34)C2=O)CC1 [Example 3, 3-oxo-3-(4-(5-oxopyrrolo[4,3,2-de][2,6]naphthyridin-4(1H,3H,5H)-yl)piperidin-1-yl)propanenitrile]
3 | 501 | 79.4 | CC1(N2Cc3c[nH]c4nccc(c34)C2=O)CCN(C(=O)CC#N)CC1 [Example 6, 3-(4-methyl-4-(5-oxopyrrolo[4,3,2-de][2,6]naphthyridin-4(1H,3H,5H)-yl)piperidin-1-yl)-3-oxopropanenitrile]
4 | 10 | 20 | CCC1(N2Cc3c[nH]c4nccc(c34)C2=O)CCN(C(=O)CC#N)CC1 [Example 9, 3-(4-ethyl-4-(5-oxopyrrolo[4,3,2-de][2,6]naphthyridin-4(1H,3H,5H)-yl)piperidin-1-yl)-3-oxopropanenitrile]
5 | 100 | 79.4 | CCC(CC)N1Cc2c[nH]c3nccc(c23)C1=O [Example 10, 4-(pentan-3-yl)-3,4-dihydropyrrolo[4,3,2-de][2,6]naphthyridin-5(1H)-one]
6 | 316 | 398 | O=C1c2ccnc3[nH]cc(c23)CN1C(CCO)C1CC1 (stereo not drawn) [Example 11, 4-(1-cyclopropyl-3-hydroxypropyl)-3,4-dihydropyrrolo[4,3,2-de][2,6]naphthyridin-5(1H)-one]
7 | 7940 | 3160 | CC(C)(C)OC(=O)N1CCC(CN2Cc3c[nH]c4nccc(c34)C2=O)C1 (stereo not drawn) [Example 12, Tert-Butyl 3-((5-oxopyrrolo[4,3,2-de][2,6]naphthyridin-4(1H,3H,5H)-yl)methyl)pyrrolidine-1-carboxylate]
8 | 3160 | 5010 | O=C1c2ccnc3[nH]cc(c23)CN1CC1CCNC1 (stereo not drawn) [Example 13, 4-(pyrrolidin-3-ylmethyl)-3,4-dihydropyrrolo[4,3,2-de][2,6]naphthyridine-5(1H)-one]
9 | 50.1 | 10 | CCC(=O)N1CCC(CC)(N2Cc3c[nH]c4nccc(c34)C2=O)CC1 [Example 16, 4-(4-ethyl-1-propionylpiperidin-4-yl)-3,4-dihydropyrrolo[4,3,2-de][2,6]naphthyridin-5(1H)-one]
10 | 12.6 | 5.01 | CCC1(N2Cc3c[nH]c4nccc(c34)C2=O)CCN(c2ccncn2)CC1 [Example 17, 4-(4-ethyl-1-(pyrimidin-4-yl)piperidin-4-yl)-3,4-dihydropyrrolo[4,3,2-de][2,6]naphthyridin-5(1H)-one]
11 | 20000 | 20000 | CC[C@@H](C(=O)N1CCCC1)N1Cc2ccnc3[nH]cc(c23)C1=O [Example 18, (S)-4-(1-oxo-1-(pyrrolidin-1-yl)butan-2-yl)-4,5-dihydropyrrolo[4,3,2-de][2,6]naphthyridin-3(1H)-one]
12 | 316 | 3980 | CC[C@H](C(=O)N1CCCC1)N1Cc2ccnc3[nH]cc(c23)C1=O [Example 19, (R)-4-(1-oxo-1-(pyrrolidin-1-yl)butan-2-yl)-4,5-dihydropyrrolo[4,3,2-de][2,6]naphthyridin-3(1H)-one]
13 | 79.4 | 1580 | CC(C)[C@H](C(=O)N1CCCC1)N1Cc2ccnc3[nH]cc(c23)C1=O [Example 20, (R)-4-(3-methyl-1-oxo-1-(pyrrolidin-1-yl)butan-2-yl)-4,5-dihydropyrrolo[4,3,2-de][2,6]naphthyridin-3(1H)-one]
14 | 126 | 794 | CC(C)C[C@H](C(=O)N1CCCC1)N1Cc2ccnc3[nH]cc(c23)C1=O [Example 21, (R)-4-(4-methyl-1-oxo-1-(pyrrolidin-1-yl)pentan-2-yl)-4,5-dihydropyrrolo[4,3,2-de][2,6]naphthyridin-3(1H)-one]
15 | 31.6 | 631 | CC(C)[C@H](C(=O)NC1CCCC1)N1Cc2ccnc3[nH]cc(c23)C1=O [Example 22, (R)—N-cyclopentyl-3-methyl-2-(3-oxopyrrolo[4,3,2-de][2,6]naphthyridin-4(1H,3H,5H)-yl)butanamide]
16 | 398 | 3980 | CC[C@@H](C)[C@H](C(=O)NC1CCCC1)N1Cc2ccnc3[nH]cc(c23)C1=O [Example 23, (2R,3R)—N-cyclopentyl-3-methyl-2-(3-oxopyrrolo[4,3,2-de][2,6]naphthyridin-4(1H,3H,5H)-yl)pentanamide]
17 | 1580 | 12600 | CC[C@H](C)[C@H](C(=O)NC1CCCC1)N1Cc2ccnc3[nH]cc(c23)C1=O [Example 24, (2R,3S)—N-cyclopentyl-3-methyl-2-(3-oxopyrrolo[4,3,2-de][2,6]naphthyridin-4(1H,3H,5H)-yl)pentanamide]
18 | 200 | 1580 | O=C(NC1CCCC1)[C@@H](C1CC1)N1Cc2ccnc3[nH]cc(c23)C1=O [Example 25, (R)—N-cyclopentyl-2-cyclopropyl-2-(3-oxopyrrolo[4,3,2-de][2,6]naphthyridin-4(1H,3H,5H)-yl)acetamide]
19 | 10 | 126 | CC(C)(C)[C@H](C(=O)NC1CCCC1)N1Cc2ccnc3[nH]cc(c23)C1=O [Example 26, (R)—N-cyclopentyl-3,3-dimethyl-2-(3-oxopyrrolo[4,3,2-de][2,6]naphthyridin-4(1H,3H,5H)-yl)butanamide]
20 | 251 | 3160 | O=C(NC1CCCC1)[C@@H](C1CCCC1)N1Cc2ccnc3[nH]cc(c23)C1=O [Example 27, (R)—N,2-dicyclopentyl-2-(3-oxopyrrolo[4,3,2-de][2,6]naphthyridin-4(1H,3H,5H)-yl)acetamide]
21 | 398 | 10000 | O=C(NC1CCCC1)[C@@H](CC(F)(F)F)N1Cc2ccnc3[nH]cc(c23)C1=O [Example 28, (R)—N-cyclopentyl-4,4,4-trifluoro-2-(3-oxopyrrolo[4,3,2-de][2,6]naphthyridin-4(1H,3H,5H)-yl)butanamide]
22 | 158 | 3160 | CC(C)(O)[C@H](C(=O)NC1CCCC1)N1Cc2ccnc3[nH]cc(c23)C1=O [Example 29, (R)—N-cyclopentyl-3-hydroxy-3-methyl-2-(3-oxopyrrolo[4,3,2-de][2,6]naphthyridin-4(1H,3H,5H)-yl)butanamide]
23 | 1260 | 3160 | N#CC[C@H](C(=O)NC1CCCC1)N1Cc2c(Cl)cnc3[nH]cc(c23)C1=O [Example 30, (R)-2-(6-chloro-3-oxopyrrolo[4,3,2-de][2,6]naphthyridin-4(1H,3H,5H)-yl)-3-cyano-N-cyclopentylpropanamide]
24 | 20000 | 20000 | O=C1c2c[nH]c3nccc(c23)CN1C1(C(=O)NC2CCCC2)CCCC1 [Example 31, N-cyclopentyl-1-(3-oxopyrrolo[4,3,2-de][2,6]naphthyridin-4(1H,3H,5H)-yl)cyclopentanecarboxamide]
